Measurements from patent US10611772B2, “Crystalline form of Ribociclib succinate” (Apotex Inc., priority 2018, dated 2020).

What was measured:
[1] = cited from earlier work; for Hygroscopicity: as reported in the prior art or the CHMP report
[2] = Comparative intrinsic dissolution testing (Wood apparatus); format: physicochemical; conditions: 400 mg sample compressed at 1.5 metric tons for 1 minute, 900 mL 0.01 N HCl buffer, 75 rpm
Description: Intrinsic dissolution rate (IDR) measurements were performed using a Wood apparatus. Samples were prepared by compressing 400 mg sample at 1.5 metric tons for 1 minute. A dissolution medium consisting of 900 mL 0.01 N HCl buffer, and rotation speed of 75 rpm, was used for each experiment.

[3] = CHMP Assessment Report for KISQALI; anhydrous form; cited from earlier work

| Intrinsic Dissolution Rate [2] [mg min^−1 cm^−2] | SMILES | Form conversion upon exposure to high humidity levels ([1]; WO 2012/064805 A1) | Hygroscopicity [1] | BCS Class [3] | Solubility (BCS assessment) [3] |
| --- | --- | --- | --- | --- | --- |
| 1.9520 | CN(C)C(=O)c1cc2cnc(Nc3ccc(N4CCNCC4)cn3)nc2n1C1CCCC1.O=C(O)CCC(=O)O [Ribociclib succinate non-hydrate form] | converts to the hydrate form | hygroscopic | – | – |
| – | CN(C)C(=O)c1cc2cnc(Nc3ccc(N4CCNCC4)cn3)nc2n1C1CCCC1 [Ribociclib succinate, 7-cyclopentyl-N,N-dimethyl-2-{[5-(piperazin-1-yl)pyridin-2-yl]amino}-7H-pyrrolo[2,3-d]pyrimidine-6-carboxamide] | – | exhibits hygroscopicity | Class IV | low solubility |
